# Values joined by “and” are separate entries in the source; they are usually repeats but may differ in a detail not shown here. Equal entries are not always repeated. “Also recorded” adds a separate entry of the source.
# Columns and labels:
# [1] = FaSSIF, 37° C.; disclosed in WO2017066775A1; cited from earlier work
# [2] = Compressibility (tablet hardness and tensile strength); assay type: physicochemical; conditions: for Diameter / Thickness: 80 mg, Φ6 mm tooling, 10 kN, after 24 h, tablets 1-3; for Average tensile strength: mean of three tablets
# Protocol: An ENERPAC manual tablet press was used for compression. […] Until complete elastic recovery, hardness (H) was tested with an intelligent tablet hardness tester. Diameter (D) and thickness (L) were tested with a caliper. Tensile strength of the powder was calculated with the following formula: T=2H/πDL. Under a certain force, the greater the tensile strength, the better the compressibility.
# [3] = Adhesiveness (material sticking to the punch); assay type: physicochemical; conditions: 30 mg, Φ8 mm tooling, 10 kN held 30 s
# Protocol: The amount of material sticking to the punch was weighed. The compression was repeated twice and the average amount of material sticking to the punch during the compression were recorded.
# [4] = Flowability (compressibility index / Carr index); assay type: physicochemical; conditions: for Bulk density (ρ0): 5-mL measuring cylinder, 500 mg; for Flowability: criteria of ICH Q4B Annex 13; for Tapped density (ρf): tapping times: 1250
# Protocol: Compressibility index or Carr index is usually utilized to evaluate the flowability of powder and granules during the drug product process. Compressibility index test method is as follows: a certain amount of powder was added into a measuring cylinder and bulk volume was recorded. Then the powder was tapped to make it in the tightest state and the tapped volume was recorded. The bulk density ρ0 and tapped density pf were calculated. The compressibility index was calculated according to c=(ρf−ρ0)/ρf.
# Equipment: ZS-2E tap density tester.
# Parameter: 5-mL measuring cylinder, 500 mg, tapping times: 1250.
# [5] = Stability of Form CSII drug substance on storage (XRPD, HPLC purity); assay type: physicochemical; conditions: for Chemical purity during storage: drug substance
# Protocol: X-ray powder diffraction patterns in the present disclosure were acquired by a Bruker D2 PHASER or Bruker D8 Discover X-ray powder diffractometer. The parameters of the X-ray powder diffraction method of the present disclosure are as follows:
# The method parameters for relative substances test in the present disclosure are as follows:
# A certain amount of Form CSII sample was stored at different conditions of 4° C., 25° C./60% RH, 40° C./75% RH and 60° C./75% RH. Crystalline form was checked by XRPD before and after storage.
# [6] = Kinetic solubility of Form CSII (saturated solutions, HPLC); assay type: physicochemical
# Protocol: The method parameters of kinetic solubility test in the present disclosure are as follows:
# A certain amount of Form CSII was suspended into pH=7.4 PBS, pH=6.5 FaSSIF and pH=5.0 FeSSIF at 25° C. or 37° C. to obtain saturated solutions. After equilibration for 24 h, 30 h and 48 h, the suspensions were filtered to obtain saturated solutions, and concentration was determined by HPLC.
# [7] = Mechanical stability (tableting at 10 kN, manual grinding; XRPD); assay type: physicochemical
# Protocol: 30 mg of Form CSII was weighed into the dies of a Φ8 mm round tooling and tableted by ENERPAC manual tablet press with 10 kN pressure. Crystalline form before and after tableting were checked by XRPD. […] 10 mg of Form CSII was weighed into a mortar and ground manually for 5 min. The crystalline form before and after grinding were checked by XRPD.
# [8] = Stability of Form CSII in drug product (formulation process and storage); assay type: physicochemical; conditions: formulation and process of Tables 14 and 15
# Protocol: Crystalline form before and after tableting were checked by XRPD.
# The drug products of Form CSII were stored under 25° C./60% RH and 40° C./75% RH in closed dishes with 1 g of desiccant for 3 months to evaluate the stability of Form CSII in drug product.
# [9] = Particle size distribution (Mastersizer 3000, wet mode); assay type: physicochemical; conditions: Isopar G containing 0.2% lecithin
# Protocol: Proton nuclear magnetic resonance (H NMR) spectrum data were collected from a Bruker Avance II DMX 400M HZ NMR spectrometer. 1-5 mg of sample was weighed and dissolved in 0.5 mL of deuterated dimethyl sulfoxide to obtain a solution with a concentration of 2-10 mg/mL. The particle size distribution data in the present disclosure were acquired by a Mastersizer 3000 laser particle size analyzer of Malvern. The test is carried out in wet mode with a Hydro MV dispersing device, and the dispersion medium is Isopar G. The method parameters of the laser particle size analyzer are as follows:
# The mixtures were mixed thoroughly and transferred into the Hydro MV. The measurement was started when the shading rate is in an appropriate position.
# [10] = listed as Form C in WO2017066775A1
# [11] = 25° C./60% RH, closed, 3 months
# [12] = 40° C./75% RH, closed, 3 months
# [13] = FaSSIF pH 6.5, thermodynamic from solid, pH=6.5 FaSSIF, 37° C.
# [14] = FeSSIF pH 5.0, thermodynamic from solid, pH=5.0 FeSSIF, 37° C.
# [15] = PBS pH 7.4, aqueous buffer, thermodynamic from solid, pH=7.4 PBS, 25° C.
structure (smiles),measurement,setting,value
"CC[C@@H]1CN(C(=O)NCC(F)(F)F)C[C@@H]1c1cnc2cnc3[nH]ccc3n12 [Form C, (3S,4R)-3-ethyl-4-(3H-imidazo[1,2-a]pyrrolo [2,3-e]pyrazin-8-yl)-N-(2,2,2-trifluoroethyl) pyrrolidine-1-carboxamide, reference compound]",Solubility,[1],220 µg/mL
same,Diameter,[2]; [10],6.00 mm and 6.01 mm
same,Thickness,[2]; [10],2.14 mm and 2.18 mm and 2.07 mm
same,Average tensile strength,[2]; [10],0.69 MPa
same,Average amount of material sticking to the punch,[3]; [10],0.21 mg
same,Bulk density (ρ0),[4]; [10],0.3611 g/mL
same,Flowability,[4]; [10],Very poor (32-37)
same,Tapped density (ρf),[4]; [10],0.5618 g/mL
"CC[C@@H]1CN(C(=O)NCC(F)(F)F)C[C@@H]1c1cnc2cnc3[nH]ccc3n12 [Form CSII, (3S,4R)-3-ethyl-4-(3H-imidazo[1,2-a]pyrrolo [2,3-e]pyrazin-8-yl)-N-(2,2,2-trifluoroethyl) pyrrolidine-1-carboxamide]",Time kept stable (crystalline state unchanged),[5]; 4° C.,at least 3 months
same,Purity,"[5]; 4° C., closed, 3 months",99.41%
same,Solid form,"[5]; 4° C., closed, 3 months",Form CSII
same,Purity,[5]; [11],99.42%
same,Solid form,[5]; [11],Form CSII
same,Purity,"[5]; 25° C./60% RH, open, 3 months",99.43%
same,Solid form,"[5]; 25° C./60% RH, open, 3 months",Form CSII
same,Purity,[5]; [12],99.42%
same,Solid form,[5]; [12],Form CSII
same,Purity,"[5]; 40° C./75% RH, open, 3 months",99.44%
same,Solid form,"[5]; 40° C./75% RH, open, 3 months",Form CSII
same,Purity,"[5]; 60° C./75% RH, closed, 1 month",99.43%
same,Solid form,"[5]; 60° C./75% RH, closed, 1 month",Form CSII
same,Purity,"[5]; 60° C./75% RH, open, 1 month",99.48%
same,Solid form,"[5]; 60° C./75% RH, open, 1 month",Form CSII
same,Purity,[5]; Initial,99.35%
same,Solid form,[5]; Initial,Form CSII
same,Chemical purity during storage,[5]; 25° C./60% RH,above 99%
same,Chemical purity during storage,[5]; 40° C./75% RH and 60° C./75% RH,above 99%
same,solubility at 24 h,[6]; [13],740 µg/mL
same,solubility at 30 h,[6]; [13],760 µg/mL
same,solubility at 48 h,[6]; [13],830 µg/mL
same,solubility at 24 h,[6]; [14],1400 µg/mL
same,solubility at 30 h,[6]; [14],1400 µg/mL
same,solubility at 48 h,[6]; [14],1500 µg/mL
same,solubility at 24 h,[6]; [15],730 µg/mL
same,solubility at 30 h,[6]; [15],740 µg/mL
same,solubility at 48 h,[6]; [15],720 µg/mL
same,Solubility compared with Form C,"[6]; pH=7.4 PBS, FaSSIF and FeSSIF",higher
same,Diameter,[2],6.05 mm and 6.04 mm and 6.03 mm
same,Thickness,[2],2.35 mm and 2.16 mm and 2.12 mm
same,Average tensile strength,[2],0.88 MPa
same,Crystallinity after tableting,[7]; 10 kN pressure,remained basically unchanged
same,Crystalline state after tableting,"[7]; 10 kN pressure, Φ8 mm round tooling",does not change
same,Crystalline state after grinding,[7]; ground manually for 5 min,does not change; also recorded: doesn't change
same,Crystallinity after grinding,[7]; ground manually for 5 min,remained basically unchanged
same,"Crystalline form in the formulation process (before and after tableting, XRPD)",[8],stable
same,Average amount of material sticking to the punch,[3],0.16 mg
same,Bulk density (ρ0),[4],0.3295 g/mL
same,Flowability,[4],Excellent (≤10)
same,Tapped density (ρf),[4],0.3548 g/mL
same,Particle size distribution,[9],uniform

# Source: patent US20210380596A1, “UPADACITINIB CRYSTAL FORM AND PREPARATION METHOD THEREFOR AND USE THEREOF” (CRYSTAL PHARMACEUTICAL (SUZHOU) CO., LTD., priority 2019, published 2021)
